Results: patent US8680059B2, “Oligopeptide acetate and formulations thereof” (Biotempt B.V., priority 1998, dated 2014)

Test system: mice, 25 minutes renal ischemia/reperfusion
Test: Mouse renal ischemia reperfusion test (mortality, BUN/serum urea)
Assay type: in vivo
Set-up: BUN, mean / Urea level: unit not given here
Details: for BUN, mean: 5 mg/kg i.v.
Procedure: SEQ ID NO:2 was tested and compared with PBS (control) in a double blind animal study for the peptide's relative ability to aid recovery in a mouse renal ischemia reperfusion test. In this test, the mice were anesthetized, and one kidney from each mouse was removed. The other kidney was tied off for 25 minutes, and the serum urea levels were allowed to increase. Both before and after tying off, the peptide was administered to thirty (30) different mice (5 mg oligopeptide/kg body mass intravenously), after which, the mortality of the mice was determined for each oligopeptide as well as was the BUN concentration at two hours, 24 hours and 72 hours.
Under inhalation anesthesia, the left kidney with its artery and vein was isolated and occluded for 25 minutes using a microvascular clamp. During surgery animals were placed on a heating path to maintain body temperature at 37° C. Five minutes before placing the clamp, and 5 minutes before releasing the clamp, 5 mg/kg of peptide, dissolved in 0.1 mL of sterile saline, was administered intravenously. After reperfusion of the left kidney the right kidney was removed. Kidney function was assessed by measuring blood urea nitrogen before clamping, and at 2, 24, and 72 hours after reperfusion.
To determine dose-response relationships SEQ ID NO:2, was tested in a dose-response manner in the mice test as described above. Peptides were tested at 0.3, 1, 3, 10 and 30 mg/kg dosages given as described in Example I. Serum urea levels are presented in Table 3.

Substance: AQGV [tetrapeptide derived from human chorionic gonadotropin, alanine replacement of LQGV]
- Mortality in dose-response experiment (0.3 mg/kg, 24 h): 0-9
- Urea level (0.3 mg/kg, 24 h): 62.4
- Mortality in dose-response experiment (0.3 mg/kg, 72 h): 2-10
- Urea level (0.3 mg/kg, 72 h): 86.7
- Mortality in dose-response experiment (1.0 mg/kg, 24 h): 0-10
- Urea level (1.0 mg/kg, 24 h): 50.0
- Mortality in dose-response experiment (1.0 mg/kg, 72 h): 1-8
- Urea level (1.0 mg/kg, 72 h): 52.6
- Mortality in dose-response experiment (3.0 mg/kg, 24 h): 1-10
- Urea level (3.0 mg/kg, 24 h): 37.4
- Mortality in dose-response experiment (3.0 mg/kg, 72 h): 0-10
- Urea level (3.0 mg/kg, 72 h): 19.6
- mortality at 72 hours post-reperfusion (5 mg/kg i.v. before and after clamping, dead/total): 0/10
- Mortality in dose-response experiment (10.0 mg/kg, 24 h): 0-10
- Urea level (10.0 mg/kg, 24 h): 41.2
- Mortality in dose-response experiment (10.0 mg/kg, 72 h): 0-8
- Urea level (10.0 mg/kg, 72 h): 37.1
- Mortality in dose-response experiment (30.0 mg/kg, 24 h): 0-8
- Urea level (30.0 mg/kg, 24 h): 47.8
- Mortality in dose-response experiment (30.0 mg/kg, 72 h): 3-10
- Urea level (30.0 mg/kg, 72 h): 38.0
- BUN, mean (2 hr after reperfusion): 16.62
- BUN, mean (24 hr after reperfusion): 26.36
- BUN, mean (72 hr after reperfusion): 22.31
- BUN, mean (t = 0 hr (before clamping)): 9.713
